US20250257332A1, “TRUNCATED AND FUSION PROTEINS” (Monash University, priority 2021, published 2025)
Entries after “also recorded” stand apart in the source; their conditions may differ.

Experiments:
C2C12 myoblasts = test: C2C12 myoblast proliferation by EdU incorporation; type: cell-based, mouse; settings: for effect on NAMPT-induced increase in myoblast proliferation: co-administration with NAMPT
Method: FIG. 2. […] In vitro assay assessing the effects of exogenously introduced factors on C2C12 myoblast proliferation. Proliferation is identified by EdU incorporation. […] Mean+S.D. Two-way ANOVA with Tukey's multiple comparison test. […] Mean±SEM
The mouse muscle cell line C2C12 (Yaffe, D. & Saxel, O. Serial passaging and differentiation of myogenic cells isolated from dystrophic mouse muscle. Nature 270, 725 (1977) were cultured in growth media (Dulbecco's Modified Eagle Medium (4.5 g/l D-Glucose, No L Glutamine, No Sodium Pyruvate (Gibco))+20% Fetal Bovine Solution-One Shot (Gibco)+1% Glut Max 100×(Gibco)). Cells were maintained at 37° C., 5% CO2. Cells at 70% confluence, passage 8 were extracted from T75 flasks with 0.025% Tryspin EDTA (Gibco), neutralised in growth media, spun at 180×g for 5 min to pellet cells. The cells were then resuspended in 10 ml of fresh growth media. 500 μl of cells were plated on a 8-well on cover glass II (Sarstedt) chamber slide at a density of 1×10^3 cells/ml. Cells were left 4 h at 37° C. to re-attach. For drug treatments, the media were supplemented with appropriate doses and cultured for 6 h.

[1] = tested on: C2C12 murine myoblast cells; test: C2C12 cell proliferation, CyQuant Proliferation Assay kit; type: cell-based, mouse; settings: 20 nM, 48 hours, compared with full-length NAMPT
Method: FIG. 7. Human NAMPT variants stimulate muscle progenitor proliferation. C2C12 mouse myoblasts were treated with 20 nM full length NAMPT (NAMPT) or NAMPT variants for (NAMPTxxx-xxx, where xxx are amino acid numbers) 48 hours. Quantification of cell proliferation was performed using CyQuant Proliferation Assay kit. […] Box and whiskers denote median with minimum and maximum values. n=4-5 independent experiments per protein. Statistical significance is indicated as exact p-value. […] Significance between conditions were analysed by one-way ANOVA with Tukey post-hoc test.
Human NAMPTcif (hNAMPTcif) and truncated variants of hNAMPTcif were designed by progressively removing N-terminal regions containing positively charged amino acids. Four truncations were produced and numbered T1 to T4. […] Quantification of proliferation was performed using commercially-available CyQuant Proliferation Assay kit (Thermo Fisher Scientific) according to manufacturer's instructions and read using a Synergy H1 plate reader (BioTek). […]
The heparin-binding sequence of placenta growth factor 2 (PIGF2) was fused to the N-terminus of NAMPTcif and produced using a bacterial expression system. […] Quantification of proliferation was performed using commercially-available CyQuant Proliferation Assay kit (Thermo Fisher Scientific) according to manufacturer's instructions and read using a Synergy H1 plate reader (BioTek). […]

[2] = tested on: volumetric muscle loss injury of the rectus femoris muscle
Method: Injury: male C57BL/6J mice aged between 10-12 weeks were anesthetised and shaved on the hind left leg. A unilateral incision measuring approximately 1 cm was made exposing the underlying fascia. The left hind limb was extended and exteriorised via the incision site by retracting the surrounding tissue. A 3×4 mm full thickness segment of the rectus femoris muscle was removed. Directly after, the injury site was filled with fibrin hydrogel with or without 200 ng or 500 ng of hrNAMPT (1) (hydrogel components; 40 μl, 8 mg/ml human fibrinogen (FIB3, Enzyme Research Laboratories), 4 U/ml bovine thrombin (T4648, Sigma), 5 mM CaCI2, 17 μg/ml of aprotinin (ab146286, Abcam)) which polymerized in the defect. Then, the soft tissue was closed with stitches.
Histology: 10 days after treatment, animals were sacrificed and the wounds were harvested for histological analysis. The defect site and associated proximal and distal segment of the quadriceps muscle (including the rectus femoris, vastus medialis and vastus lateralis) were excised and embedded. Histological analysis was performed on serial paraffin sections (4 μm sections collected passing the central portion of the wound). Multiple sections were stained with Masson's Trichrome (to detect collagen deposition) and the extent of fibrosis (represented by a blue stain) was measured by histomorphometric analysis using ImageJ software (version 1.51 h, National Institutes of Health, USA). To maintain uniformity between samples, the length of the vastus medialis taken at multiple depths ranging from 1.0 mm-3.0 mm serves as a reference between tissue sections to determine the depth of sectioning. For fibrotic quantification, average muscle fibrosis area at each depth was scored and normalised with the area of the rectus femoris. Total area of muscle is determined by calculating the average area of rectus femoris at each depth.
Immune cell profiling and PAX7+ cell quantification with flow cytometry: 4, 6 or 8 days after treatment with either 0.5 μg of hrNAMPT (1) delivered by fibrin hydrogel or control fibrin hydrogel only, mice were euthanised via CO2 asphyxiation. The defect site and associated proximal and distal segment of the quadricep muscles were isolated and placed into 890 μl of complete RPMI (with 10% FBS and 2 mM Glutamax, Life Technologies). The tissue was minced with surgical scissors and 100 μl of 10 mg/ml Collagenase II (Sigma-Aldrich) and 10 μl of 10 mg/ml DNAse I (Biolabs), while 100 μl of dispase II (10 mg/ml) was added into the digestion for PAX7 acquisition. The mixture was vortexed and incubated at 37° C. for 45 min. The collagenase was then inactivated with 500 μl ice-cold PBS, 5% FBS, 5 mM EDTA. The mixture was strained subsequently through 70 μm and 40 μm filters. The cell suspension was further diluted with 1 ml complete RPMI and centrifuged for 10 min at 300×g. The supernatant was discarded and the pellet was resuspended in 250 μl complete RPMI and aliquoted into wells of a 96-well U bottom plate for antibody staining. The cell solutions were centrifuged, supernatant discarded, and washed with PBS. The cell viability stain used was 100 μl of Zombie Aqua (Biolegend) Live-Dead dye diluted in PBS (1:400 dilution) and incubated for 30 min at 4° C. The cells were then blocked with FcX (anti-CD16/32 antibodies, Biolegend, 1 μg/ml) flow cytometry buffer (PBS, 5% FBS). The cells were kept for 20 min at 4° C., washed with flow cytometry buffer and centrifuged. […] For internal Foxp3 staining in the T cell panel, cells were fixed with 100 μl fixation/permeabilisation solution (42080, Biolegend) for 35 min. Then cells were washed and resuspended in 100 μl of flow cytometry buffer with 0.5% Saponin and 5 μg/ml anti-Foxp3 (clone 3G3, #35-5773-U100) for 45 min. Cells were then resuspended in flow cytometry buffer (100 μl) and acquired on the Fortessa x20 (Beckman Coulter). […] Cells were stained for 45 min on ice and washed as described above.

TLR4 = molecular target: T1, TLR4 (Homo sapiens, UniProt O00206); test: TLR4 signalling assay in HEK-Blue TLR4 reporter cells; type: cell-based; settings: 19 nM; 24 hours; plus 5 ug/ml polymyxin B
T1 construct: host or cells: HEK-Blue TLR4 reporter cell line
T1 sequence (O00206 24-839): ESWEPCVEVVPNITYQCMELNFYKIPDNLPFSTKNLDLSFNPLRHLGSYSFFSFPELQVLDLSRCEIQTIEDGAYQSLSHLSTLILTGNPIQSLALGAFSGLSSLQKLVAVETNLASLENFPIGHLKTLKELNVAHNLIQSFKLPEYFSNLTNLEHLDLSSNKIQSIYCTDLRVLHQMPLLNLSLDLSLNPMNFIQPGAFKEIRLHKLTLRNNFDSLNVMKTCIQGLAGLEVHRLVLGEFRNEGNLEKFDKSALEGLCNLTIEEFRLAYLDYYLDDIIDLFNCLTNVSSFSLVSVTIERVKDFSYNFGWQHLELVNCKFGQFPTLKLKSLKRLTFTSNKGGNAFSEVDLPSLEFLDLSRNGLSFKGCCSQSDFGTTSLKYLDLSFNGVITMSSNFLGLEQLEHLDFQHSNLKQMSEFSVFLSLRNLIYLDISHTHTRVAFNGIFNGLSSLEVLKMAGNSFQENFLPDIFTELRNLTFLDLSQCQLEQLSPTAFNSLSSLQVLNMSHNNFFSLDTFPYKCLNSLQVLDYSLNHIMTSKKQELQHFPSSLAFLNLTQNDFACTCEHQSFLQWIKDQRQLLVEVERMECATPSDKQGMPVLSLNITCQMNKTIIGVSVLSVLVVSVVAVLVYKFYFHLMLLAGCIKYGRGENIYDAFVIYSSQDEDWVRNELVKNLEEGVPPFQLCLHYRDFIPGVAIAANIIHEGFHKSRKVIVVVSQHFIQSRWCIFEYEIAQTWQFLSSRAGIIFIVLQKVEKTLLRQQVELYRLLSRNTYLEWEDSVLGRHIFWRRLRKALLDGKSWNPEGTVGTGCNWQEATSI
T1 sequence (Q9Y6Y9 17-160 partner limits assumed): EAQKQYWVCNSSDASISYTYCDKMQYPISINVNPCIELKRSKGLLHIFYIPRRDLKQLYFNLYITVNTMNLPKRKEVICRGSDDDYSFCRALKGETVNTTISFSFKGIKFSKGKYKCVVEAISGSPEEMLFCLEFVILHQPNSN
Method: TLR4 receptor activation was assayed using the HEK-Blue TLR4 reporter cell line (InvivoGen). In this cell line, TLR4 and downstream NFκB signalling induces expression and secretion of alkaline phosphatase that can be quantified via colorimetric assay. HEK-Blue cells were treated for 24 hours with 19 nM of NAMPTcif or PIGF-NAMPTcif plus 5 ug/ml polymyxin B to ensure no TLR4 activation by any trace amounts of endotoxin. TLR4 activity was reported as the equivalent amount of activation by bacterial lipopolysaccharides (LPS), thus a standard curve was generated by serial dilutions of LPS from 0.01 to 20 ng/ml. Detection of alkaline phosphatase activity was performed using a QUANTI-Blue kit (InvivoGen) according to manufacturer's instructions and plates were read using a Synergy H1 plate reader (BioTek). Data were presented as equivalent LPS concentration in ng/ml. A one-way ANOVA with Dunnett's multiple comparisons test was performed to determine statistical significance.

[3] = tested on: Human primary endothelial cells derived from umbilical vein; test: Human primary endothelial cell proliferation, CyQuant; type: cell-based; settings: 20 nM; 48 hours
Method: FIG. 9. Human NAMPT variants stimulate human endothelial cell proliferation. Human primary endothelial cells derived from umbilical vein were treated with 20 nM full length NAMPT (NAMPT) or NAMPT variants (NAMPTxxx-xxx, where xxx are amino acid numbers) for 48 hours. Quantification of cell proliferation was performed using CyQuant Proliferation Assay kit. […] Treatment with 10% FBS was used as a positive control. Box and whiskers denote median with minimum and maximum values. n=6 independent experiments per protein. Statistical significance is indicated as p-value and determined by one-sample t-test.
Similarly, the inventors next investigated the activity of full length NAMPT, NAMPT402-491 and NAMPT422-491 on human endothelial cell proliferation. Human endothelial cells were derived from umbilical vein and treated with 20 nM full length NAMPT (NAMPT) or NAMPT variants for 48 hours.

[4] = fibrin hydrogel delivery, 10 days post treatment
[5] = single dose 0.5 μg in fibrin hydrogel at the point of injury, 10 days post treatment, vs fibrin only

N#CN=C(NCCCCCCOc1ccc(Cl)cc1)Nc1ccncc1 [GMX1778]
effect on NAMPT-induced increase in myoblast proliferation (C2C12 myoblasts; EdU incorporation): does not impact its effect on myoblast proliferation; also recorded: did not affect the increased myoblast proliferation
effect on basal level of C2C12 proliferation (C2C12 myoblasts; drug alone, EdU incorporation): no negative effect on the basal level of C2C12 proliferation

O=C(NCC(=O)N1CC[C@H](N[C@H]2CC[C@@](O)(c3ccc(-c4ncccn4)cn3)CC2)C1)c1cccc(C(F)(F)F)c1 [PF-4136309]
effect on NAMPT-induced increase in myoblast proliferation (C2C12 myoblasts; EdU incorporation): does not hinder NAMPT's stimulatory effect on myoblast proliferation

CCCCOCCOc1ccc(-c2ccc3c(c2)/C=C(/C(=O)Nc2ccc([S@@+]([O-])Cc4cncn4CCC)cc2)CCCN3CC(C)C)cc1 [cenicriviroc]
effect on NAMPT-induced increase in myoblast proliferation (C2C12 myoblasts; EdU incorporation): abolishes NAMPT's pro-proliferative response; also recorded: proliferative response was blocked

CCL2/MCP-1: CCR2 ligand
myoblast proliferation (EdU incorporation), factor alone (C2C12 myoblasts; exogenously added factor vs control, listed as mrCCL2): failed to increase proliferative rates beyond that of the control

NAMPT422-471: Truncated hNAMPTcif, residues 422-471 of full length NAMPT, SEQ ID NO: 33 (His-tagged: SEQ ID NO: 34) (NKRSKKGRLSLHRTPAGNFVTLEEGKGDLEEYGQDLLHTVFKNGKVTKS)
cell proliferation, percentage increase vs PBS-treated control [1]: lower cellular proliferation of muscle progenitor cells compared to full-length NAMPT and the other NAMPT variants

NAMPT436-491: Truncated hNAMPTcif, residues 436-491 of full length NAMPT, SEQ ID NO: 10 (His-tagged: SEQ ID NO: 11) (PAGNFVTLEEGKGDLEEYGQDLLHTVFKNGKVTKSYSFDEIRKNAQLNIELEAAHH)
cell proliferation, percentage increase vs PBS-treated control [1]: lower cellular proliferation of muscle progenitor cells compared to full-length NAMPT and the other NAMPT variants

Nicotinamide phosphoribosyltransferase [NAMPT]
number of centrally nucleated de novo muscle fibres ([2]; 0.5 μg in fibrin, 6 days post treatment, vs fibrin only): significant increase
restoration of muscle architecture ([2]; delivered into the muscle defect via fibrin hydrogel, vs fibrin only control hydrogel): fully restore muscle architecture
fibrotic tissue (Masson's trichrome) [2, 4]: significant reduction in fibrotic tissue
regenerated muscle area (Masson's trichrome) [2, 4]: significantly increased the regenerated muscle area
decrease in average fibrotic area [2, 5]: 34.76±9.32%
increase in average muscle area [2, 5]: 3.276±0.4926 mm^2
TLR4 activation (equivalent LPS concentration) (TLR4): activates TLR4
endothelial cell proliferation, percentage increase vs PBS-treated control [3]: still stimulated endothelial cell proliferation above negative control

maraviroc
effect on NAMPT-induced increase in myoblast proliferation (C2C12 myoblasts; EdU incorporation): abolishes NAMPT's pro-proliferative response; also recorded: proliferative response was blocked
